Results on five compounds are retold here after ChEMBL document CHEMBL1201862, “PubChem BioAssay data set” (2004).

For assay [1], the target named is G-protein coupled receptor 55 (Homo sapiens, UniProt Q9Y2T6). The experiment in a line: GPR55 agonists via beta-arrestin recruitment, primary screen, imaging, U2OS cells, beta-arrestin-GFP redistribution (AID 1961). Type of assay: functional. Background: Activated receptors often draw arrestin, which recruitment assays turn into a signal.
Assay [2] concerns the target T1, Endoribonuclease toxin MazF (Escherichia coli K-12, UniProt P0AE70).
T1 sequence (P0AE70 whole entry): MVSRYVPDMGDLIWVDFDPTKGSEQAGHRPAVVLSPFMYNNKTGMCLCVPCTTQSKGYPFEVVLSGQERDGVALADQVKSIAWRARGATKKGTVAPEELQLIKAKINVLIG
The experiment in a line: fluorescent RNA oligo signal without MazF, dose response, counter-screen for MazEF activator project, biochemical, fluorescence, single-stranded RNase substrate (AID 588502). Type of assay: functional. Background: The purpose of a counterscreen is to sort out artefacts and off-target activity.

For assay [3], the target named is T2, RNA-binding protein pos-1 (Caenorhabditis elegans, UniProt G5EF15).
T2 sequence (G5EF15 whole entry): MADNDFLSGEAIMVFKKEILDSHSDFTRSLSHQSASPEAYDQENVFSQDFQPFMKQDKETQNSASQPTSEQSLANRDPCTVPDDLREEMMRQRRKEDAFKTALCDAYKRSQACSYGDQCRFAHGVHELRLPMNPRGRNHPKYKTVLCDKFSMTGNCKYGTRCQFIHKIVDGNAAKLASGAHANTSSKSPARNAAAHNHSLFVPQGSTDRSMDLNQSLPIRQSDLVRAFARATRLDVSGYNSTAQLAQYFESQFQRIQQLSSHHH
The experiment in a line: inhibitors of POS-1/mex-3 RNA binding, dose response, biochemical, fluorescence polarization (AID 1964).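 Further: purified POS-1 fused to maltose binding protein made in E. coli; potency of compounds blocking POS-1 binding to fluorescent RNA.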 Background: Polarisation of emitted light reports the rotation of a fluorescent probe.

The target of assay [4] is T1, Endoribonuclease toxin MazF. The experiment in a line: MazF toxin RNase activators, dose response, biochemical, fluorescence, single-stranded RNA substrate, uHTS hits (AID 588481). Format: functional.
Assay [5] has as its target Neurotensin receptor type 1 (Homo sapiens, UniProt P30989). Type of assay: functional.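 Further: Image-based confirmatory dose-response assay measuring agonist activity at NTR1; NTR1-expressing U2OS osteosarcoma cells imaged for beta-arrestin GFP spot formation; agonist potency where compounds increase beta-arrestin recruitment.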
Assay [6] has as its target T3, Zinc finger protein mex-5 (Caenorhabditis elegans, UniProt Q9XUB2).
T3 sequence (Q9XUB2 whole entry): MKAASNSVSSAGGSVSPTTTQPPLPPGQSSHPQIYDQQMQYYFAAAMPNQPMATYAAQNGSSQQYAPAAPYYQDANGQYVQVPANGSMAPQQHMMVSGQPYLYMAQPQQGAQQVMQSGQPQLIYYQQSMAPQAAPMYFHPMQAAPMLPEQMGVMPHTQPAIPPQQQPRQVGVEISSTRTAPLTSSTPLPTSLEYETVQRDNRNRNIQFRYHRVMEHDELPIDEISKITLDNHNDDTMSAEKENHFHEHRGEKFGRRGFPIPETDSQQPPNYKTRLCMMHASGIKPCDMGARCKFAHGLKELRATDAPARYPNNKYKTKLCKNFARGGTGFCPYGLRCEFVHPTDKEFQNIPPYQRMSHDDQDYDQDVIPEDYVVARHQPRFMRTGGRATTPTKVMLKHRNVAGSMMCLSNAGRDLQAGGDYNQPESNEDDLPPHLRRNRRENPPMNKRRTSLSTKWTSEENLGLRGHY
In words: MEX-5/TCR-2 RNA interaction inhibitors, dose response, biochemical, C. elegans, fluorescence polarization (AID 1960).

Assay [7] in a line: cells. Type of assay: functional, cell-based.
A further assay deals with Coagulation factor XII (Homo sapiens, UniProt P00748). The experiment in a line: FXIIa inhibitor potency, concentration-response, biochemical (AID 716). Format: functional.
In assay [8] the target is T4, Trace amine-associated receptor 1 (Homo sapiens, UniProt Q96RJ0).
T4 sequence (Q96RJ0 whole entry): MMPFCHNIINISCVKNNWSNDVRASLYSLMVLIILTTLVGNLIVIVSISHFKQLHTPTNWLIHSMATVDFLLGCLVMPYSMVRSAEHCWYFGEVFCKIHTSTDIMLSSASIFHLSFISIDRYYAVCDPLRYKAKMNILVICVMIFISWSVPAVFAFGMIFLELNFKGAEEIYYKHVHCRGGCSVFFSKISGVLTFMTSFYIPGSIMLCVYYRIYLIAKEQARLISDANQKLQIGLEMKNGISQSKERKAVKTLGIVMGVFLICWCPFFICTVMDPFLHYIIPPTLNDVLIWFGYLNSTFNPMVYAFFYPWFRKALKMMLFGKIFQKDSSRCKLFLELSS
The experiment in a line: Counterscreen for agonists of the human trace amine associated receptor 1 (hTAAR1): Fluorescence-based cell-based high throughput dose response assay to identify hTAAR1 agonist that also desensitize TAAR1 receptor response. Type of assay: functional.

Assay [9] can be described thus: cells. Format: functional, cell-based. This is another data set of the same source.
The target of assay [10] is T4, Trace amine-associated receptor 1. The experiment in a line: Fluorescence-based cell-based high throughput dose response assay to identify agonists of the human trace amine associated receptor 1 (TAAR1). Type of assay: functional.
Assay [11] deals with Dual specificity protein phosphatase 3 (Homo sapiens, UniProt P51452). The experiment in a line: SAR VHR1 Fluorescent Assay for In Vitro dose response studies. [Related pubchem assays (depositor defined):AID1654, AID1661, AID1878, AID1992, AID2004, AID2070, AID2085]. Format: functional.
Assay [12] concerns the target T5, Dual specificity protein phosphatase 6 (Rattus norvegicus, UniProt Q64346).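 Further: in vitro confirmatory secondary MKP-3 assay designed to detect irreversible or slow-binding inhibitors; recombinant His-tagged rat MKP-3 acting on the substrate OMFP; inhibitor potency from reduced phosphatase rate.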
T5 sequence (Q64346 whole entry): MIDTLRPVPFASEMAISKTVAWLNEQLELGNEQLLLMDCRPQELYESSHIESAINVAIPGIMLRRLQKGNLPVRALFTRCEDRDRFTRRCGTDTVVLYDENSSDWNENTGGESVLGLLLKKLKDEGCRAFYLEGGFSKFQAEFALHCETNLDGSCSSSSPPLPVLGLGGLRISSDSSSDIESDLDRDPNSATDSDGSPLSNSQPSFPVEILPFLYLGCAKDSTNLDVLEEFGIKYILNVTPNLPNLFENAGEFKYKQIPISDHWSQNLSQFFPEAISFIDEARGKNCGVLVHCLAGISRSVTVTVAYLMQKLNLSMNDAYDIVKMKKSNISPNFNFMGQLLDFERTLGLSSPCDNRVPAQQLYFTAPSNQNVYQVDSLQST

In assay [13] the target is Heat shock 70 kDa protein 1A (Homo sapiens, UniProt P0DMV8). In words: Hsp70 inhibitors, SAR follow-up, biochemical, fluorescence polarization (AID 1072).
The target in assay [14] is Glyceraldehyde-3-phosphate dehydrogenase (Homo sapiens, UniProt P04406).
For assay [15], the target named is Heat shock cognate 71 kDa protein (Homo sapiens, UniProt P11142). In words: In Vitro Hsc70 Dose Response Fluorescence Polarization Assay. [Related pubchem assays: 1072 ].
Assay [16] deals with T6, Tyrosine-protein phosphatase non-receptor type 7 (Homo sapiens, UniProt P35236).
T6 sequence (P35236 whole entry): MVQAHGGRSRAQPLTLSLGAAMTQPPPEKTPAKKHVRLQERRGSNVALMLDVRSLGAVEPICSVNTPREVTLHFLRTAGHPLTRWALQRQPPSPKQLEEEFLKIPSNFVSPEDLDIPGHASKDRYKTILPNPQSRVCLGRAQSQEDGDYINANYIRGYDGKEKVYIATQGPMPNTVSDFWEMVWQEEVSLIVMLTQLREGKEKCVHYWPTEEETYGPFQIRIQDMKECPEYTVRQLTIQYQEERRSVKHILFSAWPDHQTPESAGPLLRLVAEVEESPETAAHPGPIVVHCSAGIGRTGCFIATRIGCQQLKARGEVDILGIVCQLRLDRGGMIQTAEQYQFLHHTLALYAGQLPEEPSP
Format: functional.

Assay [17] deals with T6, Tyrosine-protein phosphatase non-receptor type 7. The experiment in a line: redox-dependent HePTP inhibition, mechanism study, biochemical, fluorescence (AID 2068). Type of assay: functional.
In assay [18] the target is T7, Intestinal-type alkaline phosphatase (Homo sapiens, UniProt P09923). In words: human intestinal alkaline phosphatase activators, dose response, biochemical, luminescence, uHTS hits (AID 463120). Type of assay: functional.
In assay [19] the target is T7, Intestinal-type alkaline phosphatase. The experiment in a line: human IAP activators, dose response, biochemical, luminescent, uHTS hits, set 2 (AID 488817).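 Further: potency of activators that raise enzyme activity.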 Format: functional.
The target of assay [20] is T8, Alkaline phosphatase, tissue-nonspecific isozyme (Homo sapiens, UniProt P05186).
T8 sequence (P05186 whole entry): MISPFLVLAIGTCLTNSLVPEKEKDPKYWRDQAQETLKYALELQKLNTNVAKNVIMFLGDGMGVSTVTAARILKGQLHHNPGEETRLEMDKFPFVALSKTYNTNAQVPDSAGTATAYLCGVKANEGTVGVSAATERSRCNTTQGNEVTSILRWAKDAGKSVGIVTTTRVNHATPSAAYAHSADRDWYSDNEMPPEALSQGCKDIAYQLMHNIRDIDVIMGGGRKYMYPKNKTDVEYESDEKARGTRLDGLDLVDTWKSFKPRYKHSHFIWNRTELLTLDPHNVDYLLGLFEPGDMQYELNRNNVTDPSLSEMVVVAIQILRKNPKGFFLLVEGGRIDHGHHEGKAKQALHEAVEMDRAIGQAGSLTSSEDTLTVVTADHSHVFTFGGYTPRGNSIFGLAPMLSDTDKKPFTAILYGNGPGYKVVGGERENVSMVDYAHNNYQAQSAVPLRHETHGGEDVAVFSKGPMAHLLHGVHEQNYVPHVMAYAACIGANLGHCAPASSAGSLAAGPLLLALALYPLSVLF
In words: TNAP enzyme activators, dose response, selectivity assay for human IAP activator project, biochemical, TNAP isozyme, human IAP uHTS hits (AID 488886).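 Further: potency of compounds raising TNAP activity as a selectivity check on IAP activators.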 Format: functional.

The target of assay [21] is Intestinal-type alkaline phosphatase (Mus musculus, UniProt P24822). In words: PubChem AID 488875. Format: functional.
A further assay deals with Hexokinase (Trypanosoma brucei, UniProt Q38C41). The experiment in a line: Confirmation assay for inhibitors of Trypanosoma brucei hexokinase 1-Analogue-first series. [Related pubchem assays (depositor defined):AID1430, AID1632, AID2516, AID2560, AID2579, AID2600, AID449725, AID492951]. Type of assay: functional.

For orientation: EC50 means the concentration needed to bring the measured effect to its halfway point. As usually defined, the IC50 is the concentration that inhibits the measured activity by half.

Calls of active or inactive are those of the source.

T7 sequence (P09923 whole entry): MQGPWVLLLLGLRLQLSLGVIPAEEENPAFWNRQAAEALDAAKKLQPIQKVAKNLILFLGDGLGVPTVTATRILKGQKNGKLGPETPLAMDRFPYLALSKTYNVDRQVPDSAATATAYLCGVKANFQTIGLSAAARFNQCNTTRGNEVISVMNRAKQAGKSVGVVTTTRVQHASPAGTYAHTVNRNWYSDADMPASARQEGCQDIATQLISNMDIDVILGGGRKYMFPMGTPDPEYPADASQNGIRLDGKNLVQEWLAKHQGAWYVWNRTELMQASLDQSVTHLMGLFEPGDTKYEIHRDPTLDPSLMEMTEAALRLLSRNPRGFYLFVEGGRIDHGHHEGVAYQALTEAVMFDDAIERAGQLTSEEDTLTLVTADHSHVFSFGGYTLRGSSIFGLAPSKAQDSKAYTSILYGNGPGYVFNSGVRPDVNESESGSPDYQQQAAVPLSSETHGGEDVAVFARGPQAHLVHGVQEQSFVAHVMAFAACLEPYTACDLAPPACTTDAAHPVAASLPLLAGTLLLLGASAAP
Chain of Glyceraldehyde-3-phosphate dehydrogenase (P04406 whole entry): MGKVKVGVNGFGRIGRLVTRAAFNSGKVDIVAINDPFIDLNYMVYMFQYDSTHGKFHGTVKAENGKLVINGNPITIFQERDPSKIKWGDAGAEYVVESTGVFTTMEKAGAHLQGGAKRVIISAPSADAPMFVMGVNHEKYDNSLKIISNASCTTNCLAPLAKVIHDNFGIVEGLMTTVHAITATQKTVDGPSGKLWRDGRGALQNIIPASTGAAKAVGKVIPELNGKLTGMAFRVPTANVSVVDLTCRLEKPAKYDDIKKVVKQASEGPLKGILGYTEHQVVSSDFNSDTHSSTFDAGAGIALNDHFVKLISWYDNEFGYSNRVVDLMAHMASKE
Chain of Heat shock cognate 71 kDa protein (P11142 whole entry): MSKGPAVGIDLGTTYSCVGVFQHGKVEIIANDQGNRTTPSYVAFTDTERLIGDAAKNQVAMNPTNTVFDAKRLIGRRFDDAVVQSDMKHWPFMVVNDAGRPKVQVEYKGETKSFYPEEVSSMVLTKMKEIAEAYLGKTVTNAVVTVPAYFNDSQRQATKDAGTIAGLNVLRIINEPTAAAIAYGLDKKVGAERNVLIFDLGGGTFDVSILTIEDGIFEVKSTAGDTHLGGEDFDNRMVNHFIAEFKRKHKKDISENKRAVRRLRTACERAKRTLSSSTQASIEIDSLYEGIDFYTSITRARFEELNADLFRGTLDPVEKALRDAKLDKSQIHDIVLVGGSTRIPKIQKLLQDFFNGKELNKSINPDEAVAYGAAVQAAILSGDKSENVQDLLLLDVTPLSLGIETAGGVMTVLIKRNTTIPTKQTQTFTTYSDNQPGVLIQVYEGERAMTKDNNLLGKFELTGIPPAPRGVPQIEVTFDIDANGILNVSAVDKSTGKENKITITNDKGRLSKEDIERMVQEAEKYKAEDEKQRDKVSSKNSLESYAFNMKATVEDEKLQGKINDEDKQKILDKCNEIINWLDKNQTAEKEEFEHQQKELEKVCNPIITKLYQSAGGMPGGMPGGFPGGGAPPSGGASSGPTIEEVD
Chain of Coagulation factor XII (P00748 20-372 limits assumed): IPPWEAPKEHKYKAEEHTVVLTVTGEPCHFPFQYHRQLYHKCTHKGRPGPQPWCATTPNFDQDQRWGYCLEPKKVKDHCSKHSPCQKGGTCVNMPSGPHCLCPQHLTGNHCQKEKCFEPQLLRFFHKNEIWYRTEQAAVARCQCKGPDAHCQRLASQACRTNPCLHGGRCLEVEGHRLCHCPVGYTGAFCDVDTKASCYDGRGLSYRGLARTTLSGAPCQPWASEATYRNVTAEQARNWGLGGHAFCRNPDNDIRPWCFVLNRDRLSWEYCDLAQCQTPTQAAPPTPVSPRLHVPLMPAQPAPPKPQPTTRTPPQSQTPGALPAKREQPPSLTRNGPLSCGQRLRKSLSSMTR
Chain of Coagulation factor XII (P00748 373-615 limits assumed): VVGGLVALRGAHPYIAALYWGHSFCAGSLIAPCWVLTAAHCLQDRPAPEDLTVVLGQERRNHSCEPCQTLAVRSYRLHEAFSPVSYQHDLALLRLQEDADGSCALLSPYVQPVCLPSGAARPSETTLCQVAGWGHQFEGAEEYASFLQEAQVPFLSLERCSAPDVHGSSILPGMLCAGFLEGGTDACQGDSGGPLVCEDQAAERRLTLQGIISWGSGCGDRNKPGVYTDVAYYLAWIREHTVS
Chain of Heat shock 70 kDa protein 1A (P0DMV8 whole entry): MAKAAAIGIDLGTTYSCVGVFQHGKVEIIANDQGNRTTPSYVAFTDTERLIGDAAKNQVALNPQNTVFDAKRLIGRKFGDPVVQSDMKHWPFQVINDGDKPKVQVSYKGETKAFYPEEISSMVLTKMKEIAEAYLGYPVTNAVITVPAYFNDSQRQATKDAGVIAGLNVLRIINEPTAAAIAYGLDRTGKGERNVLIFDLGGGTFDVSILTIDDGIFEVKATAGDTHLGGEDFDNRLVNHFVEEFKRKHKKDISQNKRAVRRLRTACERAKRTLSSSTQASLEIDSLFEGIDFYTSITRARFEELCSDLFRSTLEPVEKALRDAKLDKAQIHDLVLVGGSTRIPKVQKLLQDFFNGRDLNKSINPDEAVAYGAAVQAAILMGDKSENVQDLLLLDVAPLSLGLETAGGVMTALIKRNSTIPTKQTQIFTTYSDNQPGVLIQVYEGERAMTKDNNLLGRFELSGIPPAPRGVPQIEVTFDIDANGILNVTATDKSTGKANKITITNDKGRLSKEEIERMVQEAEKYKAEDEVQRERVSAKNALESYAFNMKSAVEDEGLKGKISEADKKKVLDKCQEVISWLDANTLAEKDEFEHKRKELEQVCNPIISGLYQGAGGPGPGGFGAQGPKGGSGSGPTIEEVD
Chain of Neurotensin receptor type 1 (P30989 whole entry): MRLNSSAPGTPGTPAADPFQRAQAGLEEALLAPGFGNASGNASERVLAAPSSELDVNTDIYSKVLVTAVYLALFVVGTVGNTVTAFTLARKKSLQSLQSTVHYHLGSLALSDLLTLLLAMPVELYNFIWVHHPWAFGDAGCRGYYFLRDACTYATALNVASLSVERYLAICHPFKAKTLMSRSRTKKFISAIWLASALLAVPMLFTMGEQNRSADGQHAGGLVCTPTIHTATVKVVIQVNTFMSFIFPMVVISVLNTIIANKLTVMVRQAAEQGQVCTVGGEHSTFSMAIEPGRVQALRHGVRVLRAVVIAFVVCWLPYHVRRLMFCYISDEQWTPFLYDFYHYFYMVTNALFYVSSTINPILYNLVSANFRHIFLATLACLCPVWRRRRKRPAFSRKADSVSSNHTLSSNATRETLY
Chain of Dual specificity protein phosphatase 3 (P51452 whole entry): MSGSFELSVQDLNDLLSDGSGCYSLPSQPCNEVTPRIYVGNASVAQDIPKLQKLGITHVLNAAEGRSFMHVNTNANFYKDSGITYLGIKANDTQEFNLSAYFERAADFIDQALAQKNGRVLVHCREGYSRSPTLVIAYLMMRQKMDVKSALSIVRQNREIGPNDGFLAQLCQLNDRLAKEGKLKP
Chain of Hexokinase (Q38C41 whole entry): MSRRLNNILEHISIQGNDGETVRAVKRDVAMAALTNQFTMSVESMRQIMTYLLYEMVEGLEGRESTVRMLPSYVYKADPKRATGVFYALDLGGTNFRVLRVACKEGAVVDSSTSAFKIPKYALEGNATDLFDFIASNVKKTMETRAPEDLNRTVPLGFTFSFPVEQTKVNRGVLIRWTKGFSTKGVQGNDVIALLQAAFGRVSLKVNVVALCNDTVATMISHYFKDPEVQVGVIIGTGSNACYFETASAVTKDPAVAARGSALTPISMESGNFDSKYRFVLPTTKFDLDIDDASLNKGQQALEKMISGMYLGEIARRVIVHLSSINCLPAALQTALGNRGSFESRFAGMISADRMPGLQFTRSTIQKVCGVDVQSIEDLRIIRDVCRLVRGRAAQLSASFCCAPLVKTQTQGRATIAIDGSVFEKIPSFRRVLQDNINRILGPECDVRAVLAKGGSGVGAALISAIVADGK
Chain of Intestinal-type alkaline phosphatase (Mus musculus, UniProt P24822) (P24822 whole entry): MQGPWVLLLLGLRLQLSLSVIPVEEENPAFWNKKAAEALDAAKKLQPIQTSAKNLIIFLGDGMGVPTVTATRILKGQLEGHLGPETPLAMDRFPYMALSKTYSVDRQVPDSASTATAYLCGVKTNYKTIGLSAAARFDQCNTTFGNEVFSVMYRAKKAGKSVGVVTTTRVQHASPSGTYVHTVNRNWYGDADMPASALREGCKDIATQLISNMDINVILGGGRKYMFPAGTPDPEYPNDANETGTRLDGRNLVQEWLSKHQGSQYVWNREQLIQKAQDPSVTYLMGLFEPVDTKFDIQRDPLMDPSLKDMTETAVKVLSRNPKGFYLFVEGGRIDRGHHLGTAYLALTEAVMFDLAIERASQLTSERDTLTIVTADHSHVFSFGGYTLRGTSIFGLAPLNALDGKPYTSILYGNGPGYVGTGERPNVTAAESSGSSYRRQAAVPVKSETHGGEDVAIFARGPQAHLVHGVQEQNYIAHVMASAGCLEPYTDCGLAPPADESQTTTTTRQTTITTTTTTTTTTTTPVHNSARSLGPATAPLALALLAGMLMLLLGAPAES
Chain of G-protein coupled receptor 55 (Q9Y2T6 whole entry): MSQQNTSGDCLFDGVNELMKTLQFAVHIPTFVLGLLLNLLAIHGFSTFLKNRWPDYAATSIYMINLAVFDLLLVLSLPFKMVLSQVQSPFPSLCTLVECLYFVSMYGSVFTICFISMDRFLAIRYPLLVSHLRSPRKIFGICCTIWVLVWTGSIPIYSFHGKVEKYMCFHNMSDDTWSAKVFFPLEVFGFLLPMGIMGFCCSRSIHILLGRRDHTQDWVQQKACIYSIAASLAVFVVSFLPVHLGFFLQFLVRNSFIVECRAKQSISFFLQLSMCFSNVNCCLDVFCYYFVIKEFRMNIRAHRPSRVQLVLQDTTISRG

Turning to `COc1cc2c3nnc(-c4ccccc4)c-3cn(Cc3ccccc3F)c2cc1OC`, the EC50 in assay [1] was 0.807 µM (active); in assay [2] it was 34.6 µM (inactive); in [3], > 300 µM (not active); in [4], > 99 µM (inactive); in [5], 5.8 µM (active); in [6], > 300 µM (inconclusive).

Take `O=C(O)C1CCCCC1C(=O)NCCc1ccccc1` (stereo not drawn): the IC50 was > 29.9 µM (inactive) in the assay “cells [7]”, > 50 µM (inactive) at Coagulation factor XII and 8.04 µM (active) in [8]. For the same compound, the values for the EC50 (in the assay “cells [9]”; in assay [10]) were > 29.9 µM (inactive) and 1.42 µM (active), respectively.

As to `O=C1c2ccccc2CC1Sc1nnc(-c2ccco2)c(-c2ccco2)n1` (stereo not drawn), the IC50 in [11] was 27.9 µM (active); in assay [12] it was 42.1 µM (active); in assay [13], > 100 µM (not active); in assay [14] it was > 100 µM (not active); in assay [15], > 100 µM (not active); in assay [16], 8.11 µM (active). Besides, the IC50 in assay [17] was 1.12 µM (active).

On to `COc1cc(CN2CCC(n3nccc3NC(=O)CCCc3ccccc3)CC2)ccc1F`, for which the EC50 was 68.7 µM (active) in assay [18], 79.7 µM (active) in assay [19], 66.1 µM (active) in [20] and 58.2 µM (active) in assay [21].

With `CCc1ccc(C(=O)Nc2cc(Cl)ccc2C(=O)O)cc1`, the IC50 on Hexokinase is 3.04 µM (active).
